The text below walks through data of PubChem BioAssay (NCI).

Structures are written as SMILES.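 Compound exposure: 48 hours, 5 concentrations, 96-well plates. TGI marks complete inhibition of growth.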

What all share (assay): NCI tumour cell line growth inhibition, 48 h
Assay [1] concerns HCT-15 colon.
Assay [2] concerns 786-0 renal.
The test system of assay [3] is KM12 colon.
Assay [4] relates to MDA-MB-435.
Assay [5] has as its system MALME-3M melanoma.
Assay [6] concerns SK-MEL-2 melanoma.
Assay [7] has as its system DU-145 prostate.
The subject of assay [8] is MCF7 breast.
Assay [9] deals with OVCAR-3 ovarian.
Assay [10] concerns ACHN renal.
The subject of assay [11] is HL-60(TB) leukemia.
Assay [12] relates to CCRF-CEM leukemia.
Assay [13] relates to HOP-92 NSCLC.
For assay [14], the system named is OVCAR-8 ovarian.
Assay [15] concerns BT-549 breast.
Assay [16] relates to M14 melanoma.
The subject of assay [17] is OVCAR-4 ovarian.
Assay [18] concerns NCI-H226 lung.

As to `CCOP(C)(=O)C(Cc1c[nH]c2ccccc12)C(=O)O` (configuration not stated), the TGI in assay [1], in assay [2], in assay [3], in assay [4], in [5] and in assay [6] was above 100 µM throughout. The TGI in assay [7], in [8], in [9], in assay [10], in assay [11] and in assay [12] was above 100 µM each time. For the same compound, the TGI in [13], in [14], in [15] and in assay [16] was above 100 µM throughout.

Take `COc1ccc2cc(C(C)C(O)c3cc(F)c(F)c(F)c3F)ccc2c1` (configuration not stated): the TGI in [1], in [2], in assay [4], in assay [5], in [17] and in [7] was above 100 µM each time. The TGI in assay [8], in assay [9], in assay [10], in assay [11], in assay [12] and in assay [13] was above 100 µM in each case. For the same compound, the TGI in assay [14], in [15], in assay [18] and in [16] was above 100 µM in each case.

Consider `CC1=NN(c2nc(N)nc(CCl)n2)CC1`, for which the TGI in assay [1] was 43.6 µM; in assay [2] it was 23 µM; in assay [3], 55.3 µM; in [4], above 100 µM; in assay [6], above 100 µM; in assay [17] it was 32.2 µM. The TGI in assay [7] was above 100 µM; in [8], above 100 µM; in assay [9], 35.3 µM; in assay [10], 38.5 µM; in assay [11], 40 µM; in assay [12] it was 43.3 µM. In addition, the TGI is 38.7 µM in assay [13]; 48.6 µM in assay [14]; above 100 µM in assay [15]; above 100 µM in assay [18]; 80.4 µM in assay [16].

As to `CCOC(=O)Cc1nnc2c(-c3ccccc3)nc3ccccc3n12`, the TGI in [1] is above 100 µM; in [2], above 100 µM; in assay [3] it was above 100 µM; in assay [4] it was above 100 µM; in assay [5] it was above 100 µM; in [6] it was 95.2 µM. In addition, the TGI was above 100 µM in assay [17]; 73.4 µM in assay [7]; above 100 µM in assay [8]; 51.9 µM in [9]; 48.3 µM in [10]; above 100 µM in assay [11]. The TGI in assay [12], in assay [13], in assay [15], in assay [18] and in [16] was above 100 µM each time.

Take `CC1=NN(C(=O)CC(=O)Nc2ccccc2C)C(=O)C1N=Nc1ccc(C(=O)O)cc1` (configuration not stated): the TGI in assay [1], in assay [2], in [3], in [4], in [5] and in [6] was above 100 µM each time. Moreover, the TGI in [17], in assay [7], in [8], in assay [9], in assay [10] and in assay [11] was above 100 µM in each case. For the same compound, the TGI in [12], in assay [13], in [14], in assay [15] and in assay [16] was above 100 µM throughout.

With `COc1cc(/C=C2\C[C@H]3[C@@H]4CC=C5C[C@@H](O)CC[C@]5(C)[C@H]4CC[C@]3(C)[C@H]2O)cc(OC)c1OC`, the TGI was above 100 µM in assay [1]; 27.1 µM in assay [2]; 39.4 µM in assay [3]; 87.2 µM in assay [4]; above 100 µM in [5]; 32.5 µM in [6]. Further, the TGI in [17] was 46.2 µM; in assay [7], above 100 µM; in assay [8], above 100 µM; in [9] it was 88 µM; in [10], above 100 µM; in [11] it was 23 µM. The TGI is 65.8 µM in assay [13]; above 100 µM in assay [14]; 56.8 µM in [15]; above 100 µM in assay [18]; 61.7 µM in [16].

As for `N#Cc1ccc(Oc2nc3ccccc3nc2-c2ccccc2)cc1`, the TGI in assay [1], in [2], in assay [3], in assay [4], in assay [5] and in assay [6] was above 100 µM throughout. The TGI in [17], in assay [7], in assay [8], in assay [9], in assay [10] and in [11] was above 100 µM each time. The TGI in assay [12], in [13], in assay [15] and in assay [18] was above 100 µM throughout.

Take `CCCCCCCC1(N=[N+]=[N-])C(=O)c2ccccc2N(C)C1=O` (configuration not stated): the TGI in assay [1], in assay [2], in assay [3], in assay [4], in assay [5] and in assay [17] was above 100 µM each time. The TGI in [7] is above 100 µM; in assay [8] it was above 100 µM; in [9], above 100 µM; in assay [10], above 100 µM; in assay [11], 99.1 µM; in [12], above 100 µM. Also, the TGI was 89.6 µM in [13]; above 100 µM in assay [14]; above 100 µM in assay [15]; above 100 µM in [18]; above 100 µM in assay [16].

Turning to `C[C@H]1O[C@@H](c2c(O)ccc3ccccc23)C[C@@H](N(C)C)C1O` (some centres not stated), the TGI in [1], in [2], in [4], in assay [5], in [6] and in [17] was above 100 µM throughout. Further, the TGI in assay [7], in assay [8], in assay [9], in assay [10], in assay [11] and in [12] was above 100 µM in each case. The TGI in assay [13], in assay [14], in assay [15], in [18] and in [16] was above 100 µM each time.

Turning to `CC(=O)Oc1ccc2c(c1)Oc1cc(C(C)=O)ccc1C21OC(=O)c2ccccc21` (configuration not stated), the TGI in [1], in assay [2], in assay [3], in assay [4], in [5] and in assay [6] was above 100 µM in each case. Moreover, the TGI in assay [17], in assay [7], in [8], in assay [9], in assay [10] and in [11] was above 100 µM throughout. Further, the TGI in [13], in assay [14], in assay [15] and in [16] was above 100 µM each time.

For the compound `COc1cc(N=CN(C)C)c2ncccc2c1`, the TGI in assay [1], in assay [2], in assay [4], in assay [5], in assay [6] and in assay [17] was above 100 µM throughout. Also, the TGI in assay [7], in assay [8], in assay [9], in assay [10], in assay [11] and in [12] was above 100 µM in each case. Further, the TGI in assay [13], in [14], in assay [15], in [18] and in assay [16] was above 100 µM each time.

Consider `CCOC(=O)c1c(N)nn2c1cc1cccccc12`, for which the TGI is above 100 µM in assay [1]; above 100 µM in assay [2]; 54.6 µM in [3]; above 100 µM in assay [4]; 67.3 µM in assay [5]; 45.1 µM in assay [6]. The TGI in [17], in [7], in assay [8], in assay [9], in [10] and in [11] was above 100 µM each time. In addition, the TGI in [12] was above 100 µM; in assay [13], 95.8 µM; in assay [14], 73.1 µM; in assay [15], 65.2 µM; in [16], above 100 µM.

Regarding `Cc1nc(C)c(C(=O)NNC(=O)Cc2ccccc2)cc1C(=O)NNC(=O)Cc1ccccc1`, the TGI in assay [1], in [2], in assay [3], in assay [4], in assay [6] and in [17] was above 100 µM throughout. Moreover, the TGI in assay [7], in [8], in [9], in assay [10], in assay [11] and in assay [12] was above 100 µM each time. Moreover, the TGI in [13], in assay [14], in assay [15], in [18] and in [16] was above 100 µM in each case.
